Measured values published in patent US20260167674A1, “ACE2 […] SEQUENCES” (priority 2023, published 2026).
No end group written: not given here.

Assays:
SARS-COV-2 RBD = SARS-COV-2 RBD (Severe acute respiratory syndrome coronavirus 2, UniProt P0DTC2); assay: biochemical; assay type: binding
[1] = molecular target: SARS-COV-2 RBD protein with His-tag, purified by recombinant expression in Pichia pastoris (SARS-COV-2), P0DTC2; assay: SPR at 25 C; His-tagged RBD captured by anti-His tag, peptide flowed over

Molecule | Kd (SARS-COV-2 RBD) | Kd [1]
QEQAQTYLDGYNKTYQDLVYKDNLAQWTLNT [peptide2] | 3.55 to 4.09 pM | –
EENAKTFLNNFNQEAEDLSYQSSLASWNYNT [peptide4] | 1.26 to 8.16 pM | –
QEQAQTYLDGYNKTYQDLVYKDNLAQWTLNT (modifications not checked) [peptide2 (WP_072363071.1:30-60 M2 family metallopeptidase [Chitinophaga sancti])] | – | 3.55 to 4.09 pM
EENAKTFLNNFNQEAEDLSYQSSLASWNYNT (modifications not checked) [peptide4 (BAB40431.1:22-52 angiotensin-converting enzyme-related carboxypeptidase [Mus musculus])] | – | 1.26 to 8.16 pM
